Here are results for one compound from US20260138965A1, “CRYSTALLINE FORMS OF A TYK2 INHIBITOR AND USES THEREOF” (Alumis Inc., priority 2022, published 2026).

In brackets after ≈: the same amount, converted by molar mass.

Common to all, as to assay type: physicochemical
Series [1] in a line: Solid form chemical and physical stability.
The nature of series [2]: Solubility of crystalline Form 1 in organic solvents. The following applies: organic solvent or mixture.
Series [3] in a line: Solubility of crystalline Form 1 in aqueous and biorelevant media.

Broadly, the solubility is the dissolved amount per volume that the medium holds. For the compound `[2H]C([2H])([2H])CC(=O)c1cnc(NC(=O)C2CC2)cc1Nc1cccc(-c2ncn(C([2H])([2H])[2H])n2)c1OC` [Form 1, N-(4-((2-methoxy-3-(1-(methyl-d3)-1H-1,2,4-triazol-3-yl)phenyl)amino)-5-(propanoyl-3,3,3-d3)pyridin-2-yl) cyclopropanecarboxamide], the “time chemically and physically stable” value in series [1] (40° C./75% RH) and in series [1] (60° C.) was “at least 10 days” in each case. For the same compound, the solubility in series [2] (in MeOH) was under 3 mg/mL; in series [2] (in MeOH/DCM (1/1)), over 43 mg/mL; in series [2] (in THF), under 17 mg/mL; in series [2] (in acetone) it was under 3 mg/mL; in series [2] (in acetonitrile), under 1 mg/mL; in series [2] (in ethanol), under 1 mg/mL. Moreover, the solubility was under 1 mg/mL in series [2] (in ethyl acetate); under 1 mg/mL in series [2] (in heptane); under 1 mg/mL in series [2] (in isopropyl alcohol); under 1 mg/mL in series [2] (in methyl t-butyl ether); 0.001 to 0.002 mg/mL (≈ 2.34 to 4.69 µM) in series [3] (in FaSSIF); 0.03 to 0.05 mg/mL (≈ 70.3 to 117 µM) in series [3] (in FeSSIF). For the same compound, the solubility in series [3] (simulated gastric fluid, in SGF) is 3.97 to 4.28 mg/mL (≈ 9310 to 10000 µM).
